Assay results reported in patent US11053219B2, “Substituted pyridines as TYK2 inhibitors” (FronThera U.S. Pharmaceuticals LLC, priority 2018, dated 2021).

Key:
JAK1 (JH2 domain) = JAK1 (JH2 domain) (Homo sapiens (Human), UniProt P23458); test: JAK1 JH2 domain binding assay (KINOMEscan); conditions: KINOMEscan; read-out: JAK1 (JH2 domain) binding Kd
Procedure: (§6) The assay is performed by combining three components: DNA-tagged kinase; immobilized ligand; and a test compound. The ability of the test compound to compete with the immobilized ligand is measured via quantitative PCR of the DNA tag.
(§7) The liganded beads were blocked with excess biotin and washed with blocking buffer (SeaBlock (Pierce), 1% BSA, 0.05% Tween 20, 1 mM DTT) to remove unbound ligand and to reduce non-specific binding. […] Test compounds were prepared as 111× stocks in 100% DMSO. All test compounds were shipped to DiscoverX in DMSO with concentration of 10 mM. Kds were determined using an 11-point 3-fold compound dilution series with three DMSO control points. Each compound was tested in duplicate. […] The compounds were then diluted directly into the assays such that the final concentration of DMSO was 0.9%. All reactions performed in polypropylene 384-well plate. Each was a final volume of 0.02 ml. […] The kinase concentration in the eluates was measured by qPCR.
(§8) The amount of kinase measured by qPCR (Signal; y-axis) is plotted against the corresponding compound concentration in nM in log 10 scale (x-axis). Binding constants (Kds) were calculated with a standard dose-response curve using the Hill equation:
(§9) Similar to the method for TYK2 JH2 binding described above, JAK1 JH2 and JAK2 JH1 domain binding assay was performed using DiscoverX's KINOMEscan™, but with change of kinase domain.

[1] = system: GM-CSF-induced pSTAT5 in human PBMC; test: GM-CSF-induced pSTAT5 in human PBMC; assay type: cell-based; conditions: GM-CSF 10 ng/ml
Procedure: (§1) Fresh Human PBMCs were resuspended in RPMI 1640 medium with 10% FBS. Cells were seeded in a round bottom 96-well plate at the concentration of 200,000 cells/well. A 10-point dilution series of test compound (top dose 10 uM, 1:5 dilution) was added to the well using the liquid dispenser (Tecan D300e) and incubated for 1 hour at 37 C. Then human IL-12 recombinant protein (R&D Systems) was added to the well at the final concentration of 10 ng/ml and incubated for 15 minutes at 37 C. Cell lysates were prepared and analyzed by Phospho STAT4 (Tyr693) Kit (Meso Scale Discovery) following manufacturer's protocol.
(§2) For calculation of the inhibition rate, the relative pSTAT4 signal of each well=pSTAT4 signal of each well−the average pSTAT4 signal of baseline. The inhibition %=(the average pSTAT4 signal of IL-12 treatment wells−the relative of pSTAT4 signal in each compound containing well)/the average pSTAT4 signal of IL-12 treatment wells*100%
(§3) The curve was plotted as the inhibition % (y-axis) vs. compounds concentration (x-axis) and was fitted with log(inhibitor) vs. normalized response—Variable slope by GraphPad Prism7.0. Control is BMS-986165:
(§4) Similar to the method for IL-12 induced pSTAT4 in human PBMC described above, these assays were performed to check if test compounds have cross-activity to JAK1. JAK2 and JAK3 pathways in human PBMC. The procedure is as described with change of stimuli to 10 ng/ml of GM-CSF or 20 ng/ml of IL-2.

JAK2 (JH1 domain) = JAK2 (JH1 domain) (Homo sapiens (Human), UniProt O60674); test: JAK2 JH1 domain binding assay (KINOMEscan)
JAK2 (JH1 domain), sequence (O60674 849-1124): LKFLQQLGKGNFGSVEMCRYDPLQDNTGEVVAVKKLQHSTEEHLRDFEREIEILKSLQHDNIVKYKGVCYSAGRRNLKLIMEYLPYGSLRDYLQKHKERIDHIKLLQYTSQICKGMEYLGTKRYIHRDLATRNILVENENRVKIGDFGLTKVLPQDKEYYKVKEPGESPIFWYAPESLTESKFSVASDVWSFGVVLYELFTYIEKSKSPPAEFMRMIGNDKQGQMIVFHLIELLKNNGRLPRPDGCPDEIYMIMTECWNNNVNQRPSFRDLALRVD
Procedure: as §6, §7, §8, §9

[2] = system: INFα induced pSTAT5 in human PBMC; test: INFα induced pSTAT5 in human PBMC; assay type: cell-based; conditions: human PBMC, INFα 5000 units/ml; read-out: p-STAT5 IC50
[3] = system: IL-2-induced pSTAT5 in human PBMC; test: IL-2-induced pSTAT5 in human PBMC; assay type: cell-based; conditions: IL-2 20 ng/ml
Procedure: as §1, §2, §3, §4

[4] = Pharmacokinetic study in Sprague Dawley rats; assay type: in vivo; conditions: rat, plasma; for Vd: read-out: Vdss
Procedure: (§5) The pharmacokinetics of test compounds were evaluated in male C57BL/6 mice, Sprague Dawley rats, Beagle dogs, and cynomolgus monkeys when administered via oral gavage and IV injection. The animals were fasted overnight before administration. Plasma samples were collected predose and at 0.5, 1, 3, 6, 9, 12, and 24 hours postdose. The samples were analyzed by LC/MS/MS and the concentration of test compound at each timepoint was determined by linear regression. Pharmacokinetic parameters were calculated from the plasma concentrations using Pheonix WinNonlin.

TYK2 (JH2 domain) = TYK2 (JH2 domain) (Homo sapiens (Human), UniProt P29597); test: TYK2 JH2 domain binding assay (DiscoverX KINOMEscan); conditions: 11-point 3-fold dilution, duplicate
TYK2 (JH2 domain), sequence (P29597 589-875): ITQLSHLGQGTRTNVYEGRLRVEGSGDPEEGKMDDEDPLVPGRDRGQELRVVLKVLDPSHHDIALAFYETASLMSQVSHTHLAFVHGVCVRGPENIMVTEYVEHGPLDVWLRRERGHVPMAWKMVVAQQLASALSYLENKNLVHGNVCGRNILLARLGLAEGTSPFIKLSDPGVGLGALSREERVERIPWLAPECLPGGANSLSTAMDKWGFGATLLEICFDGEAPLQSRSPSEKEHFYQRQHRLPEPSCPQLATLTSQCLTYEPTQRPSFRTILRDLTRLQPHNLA

[5] = Pharmacokinetic study in Beagle dogs; assay type: in vivo; conditions: dog, plasma; for Vd: read-out: Vdss
Procedure: as §5

[6] = Pharmacokinetic study in cynomolgus monkeys; assay type: in vivo; conditions: cynomolgus monkey, plasma
Procedure: as §5

[7] = Oral (5 mg/kg), read-out: C0 or Cmax (Cmax)
[8] = iv, I.V. (1 mg/kg), read-out: C0 or Cmax (C0)
[9] = Oral (2 mg/kg), read-out: C0 or Cmax (Cmax)
[10] = Oral (2 mg/kg), NA: no detectable

JAK1 (JH2 domain), sequence (P23458 583-855): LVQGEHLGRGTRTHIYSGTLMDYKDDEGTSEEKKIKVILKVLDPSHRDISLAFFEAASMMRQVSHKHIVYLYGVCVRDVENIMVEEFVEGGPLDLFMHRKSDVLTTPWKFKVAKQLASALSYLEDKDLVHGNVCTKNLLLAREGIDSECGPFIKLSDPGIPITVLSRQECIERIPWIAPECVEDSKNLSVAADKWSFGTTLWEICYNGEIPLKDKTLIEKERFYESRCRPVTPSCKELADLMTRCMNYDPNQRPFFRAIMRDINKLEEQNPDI

Structure (SMILES): [2H]C([2H])([2H])CC(=O)c1cnc(Nc2cccc(C#N)n2)cc1Nc1nccc(-c2ncn(C([2H])([2H])[2H])n2)c1OC [Example 199]
- Kd (JAK1 (JH2 domain)): < 100 nM
- IC50 [1]: 1000 to 10000 nM
- Kd (JAK2 (JH1 domain)): > 10000 nM
- IC50 [2]: < 100 nM
- IC50 [3]: 100 to 1000 nM
- AUC ([4]; Oral (5 mg/kg)): 650 ± 34 ng·h/mL
- Tmax ([4]; Oral (5 mg/kg)): 1.33 ± 0.58 h
- bioavailability ([4]; Oral (5 mg/kg)): 18.4 ± 1%
- half-life ([4]; Oral (5 mg/kg)): 1.66 ± 0.37 h
- Cmax [4, 7]: 140 ± 32 ng/mL
- AUC ([4]; iv, I.V. (1 mg/kg)): 705 ± 140 ng·h/mL
- clearance ([4]; iv, I.V. (1 mg/kg)): 23.3 ± 4.9 mL/min/kg
- half-life ([4]; iv, I.V. (1 mg/kg)): 1.74 ± 0.2 h
- Cmax [4, 8]: 414 ± 56 ng/mL
- Vd ([4]; iv, I.V. (1 mg/kg)): 3.27 ± 0.87 L/kg
- Kd (TYK2 (JH2 domain)): ≤ 1 nM
- AUC ([5]; Oral (2 mg/kg)): 67.6 ± 25 ng·h/mL
- Tmax ([5]; Oral (2 mg/kg)): 1.33 ± 0.6 h
- bioavailability ([5]; Oral (2 mg/kg)): 10.7 ± 3.9%
- half-life ([5]; Oral (2 mg/kg)): 1.36 ± 0.05 h
- Cmax [5, 9]: 23.4 ± 4 ng/mL
- AUC ([5]; iv, I.V. (1 mg/kg)): 315 ± 188 ng·h/mL
- clearance ([5]; iv, I.V. (1 mg/kg)): 63.2 ± 30 mL/min/kg
- half-life ([5]; iv, I.V. (1 mg/kg)): 1.78 ± 0.59 h
- Cmax [5, 8]: 334 ± 96 ng/mL
- Vd ([5]; iv, I.V. (1 mg/kg)): 5.62 ± 1.13 L/kg

Structure (SMILES): [2H]C([2H])([2H])CC(=O)c1cnc(Nc2ccc(C(C)(C)O)c(F)n2)cc1Nc1nccc(-c2ncn(C([2H])([2H])[2H])n2)c1OC [Example 201]
- Kd (JAK1 (JH2 domain)): < 100 nM
- IC50 [1]: 100 to 1000 nM
- Kd (JAK2 (JH1 domain)): 100 to 1000 nM
- IC50 [2]: < 100 nM
- IC50 [3]: 100 to 1000 nM
- AUC ([4]; Oral (5 mg/kg)): 499 ± 502 ng·h/mL
- Tmax ([4]; Oral (5 mg/kg)): 0.42 ± 0.14 h
- bioavailability ([4]; Oral (5 mg/kg)): 18.7 ± 18.9%
- half-life ([4]; Oral (5 mg/kg)): 1.14 ± 0.2 h
- Cmax [4, 7]: 185 ± 138 ng/mL
- AUC ([4]; iv, I.V. (1 mg/kg)): 533 ± 225 ng·h/mL
- clearance ([4]; iv, I.V. (1 mg/kg)): 34.3 ± 12 mL/min/kg
- half-life ([4]; iv, I.V. (1 mg/kg)): 0.759 ± 0.6 h
- Cmax [4, 8]: 1190 ± 116 ng/mL
- Vd ([4]; iv, I.V. (1 mg/kg)): 1.31 ± 0.42 L/kg
- Kd (TYK2 (JH2 domain)): ≤ 1 nM
- AUC ([5]; Oral (2 mg/kg)): 442 ± 81 ng·h/mL
- Tmax ([5]; Oral (2 mg/kg)): 2 h
- bioavailability ([5]; Oral (2 mg/kg)): 38.5 ± 7.1%
- half-life ([5]; Oral (2 mg/kg)): 5.05 ± 0.47 h
- Cmax [5, 9]: 103 ± 28 ng/mL
- AUC ([5]; iv, I.V. (1 mg/kg)): 575 ± 158 ng·h/mL
- clearance ([5]; iv, I.V. (1 mg/kg)): 29.3 ± 8.01 mL/min/kg
- half-life ([5]; iv, I.V. (1 mg/kg)): 4.54 ± 1.26 h
- Cmax [5, 8]: 458 ± 336 ng/mL
- Vd ([5]; iv, I.V. (1 mg/kg)): 7.41 ± 2.64 L/kg
- AUC [6, 10]: 67.9 ± 21 ng·h/mL
- Tmax [6, 10]: 2.33 ± 1.5 h
- bioavailability [6, 10]: 4.67 ± 1.5%
- half-life [6, 10]: 3.08 ± 0.66 h
- Cmax ([6]; Oral (2 mg/kg), NA: no detectable, read-out: C0 or Cmax (Cmax)): 13.9 ± 2 ng/mL
- clearance ([6]; intravenous, printed on the Oral (2 mg/kg) line (probably belongs to I.V. 1 mg/kg)): 23.2 ± 4.3 mL/min/kg
- Vd ([6]; intravenous, printed on the Oral (2 mg/kg) line (probably belongs to I.V. 1 mg/kg), read-out: Vdss): 1.47 ± 0.1 L/kg
- AUC ([6]; iv, I.V. (1 mg/kg)): 726 ± 134 ng·h/mL
- half-life ([6]; iv, I.V. (1 mg/kg)): 1.81 ± 0.76 h
- Cmax [6, 8]: 849 ± 50 ng/mL
